Article PMC10970924 (Life, 2024)

Tests used:
MCF-7 cells [1] = test: Cell cycle analysis, Hoechst 33342 flow cytometry; assay type: cell-based, human; details: MCF-7, 72 h
Experimental: MCF-7 cells were seeded at a density of 15,000 cells/mL in a 6-well plate in 3 mL of complete medium. After 24 h, the medium was replaced with one containing the studied compounds and incubated for 72 h. After incubation, cells were stained with Hoechst 33342 (Roche, Basel, Switzerland) at a concentration of 6 μg/mL for 30 min in the CO2 incubator. The nutrient medium over cells containing the floating cells was collected into tubes, and then the remaining adherent cells were trypsinized and added to the tubes with the floating cells. After this, cells were centrifuged and washed with a DPBS buffer. The fluorescence intensity of cells was measured using the flow cytofluorimeter BD FACSCalibur™ (BD Biosciences, Franklin Lakes, NJ, USA). To identify single cells, direct scatter (FS) and side scatter (SS) measurements were used, and cell doublets were excluded from the analysis using pulse processing based on the area-to-pulse width ratio.

HSF = test: Colony formation assay; assay type: cell-based; details: Homo sapiens, 72 h, incubation three days, read-out: Inhibitory concentration IC50, HSF
Experimental: (§1) Cells were cultured in a 24-well plate with 1 mL of DMEM nutrient medium for 24 h. […] The experiment was conducted in triplicate and in two or three independent repetitions. Only solvent was added to the control wells instead of the test compounds. Incubation with the drugs continued for three days, after which the grown colonies were washed with cold PBS solution and fixed in a fixing buffer (10% acetic acid, 10% methanol in distilled water) for 15 min. The colonies were stained with a 0.4% solution of crystal violet in 20% ethanol for 30 min and then washed 3 times with dH2O and analyzed under a microscope. The colonies were then dissolved in 10% acetic acid for 40 min on a shaker, and the absorbance of the lysate was read at 590 nm. Results were expressed as a percentage relative to the control, and a dose–response curve was plotted to determine the IC50 value.

HCT-15 = test: Colony formation assay; assay type: cell-based; details: Homo sapiens, HCT-15, 72 h, incubation three days, read-out: Inhibitory concentration IC50, HCT-15
Experimental: as §1

NCI-H322M = test: Colony formation assay; assay type: cell-based; details: Homo sapiens, 72 h, incubation three days, read-out: Inhibitory concentration IC50, NCI-H322M
Experimental: as §1

MDA-MB-231 = test: Colony formation assay; assay type: cell-based; details: Homo sapiens, MDA-MB-231, 72 h, incubation three days, read-out: Inhibitory concentration IC50, MDA-MB-231
Experimental: as §1

SNB-19 = test: Colony formation assay; assay type: cell-based; details: Homo sapiens, SNB-19, 72 h, incubation three days, read-out: Inhibitory concentration IC50, SNB-19
Experimental: as §1

C2C12 = test: Colony formation assay; assay type: cell-based, mouse; details: Mus musculus, C2C12, 72 h, incubation three days, read-out: Inhibitory concentration IC50, C2C12
Experimental: as §1

Colony formation assay = assay type: cell-based, mouse; details: mouse, C2C12 cells, 100 μM, read-out: C2C12 cells remaining viable
Experimental: as §1

MCF-7 [2] = test: Proliferation by impedance biosensor (RTCA DP Analyzer); assay type: cell-based; details: Homo sapiens, MCF7, 72 h, incubation three days, read-out: IC50 inhibitory concentration, MCF-7
MCF-7 cells [3] = test: Comet assay; assay type: cell-based, human; design: Tail Length: unit not given here; details: for Olive Moment / Tail Area / Tail DNA % / Tail Intensity / Tail Length / Tail Moment: 3 days
MCF-7 [4] = test: Mitochondrial membrane potential, rhodamine 123 flow cytometry; assay type: cell-based, human; details: MCF-7, 72 h, concentration corresponding to IC60
Experimental: Cells were seeded in a 12-well plate at a density of 1 × 10^5 cells/well and incubated for 24 h at 37 °C in a humid atmosphere with 5% CO2 prior to treatment. Cells were bathed in complete DMEM media containing the respective compounds, using a solvent (dH2O/DMSO) as a negative control. After 72 h, the nutrient medium over cells containing the floating cells was collected into tubes, and then the adherent cells were trypsinized and added to the fraction of floating cells. Cell suspensions were then centrifuged, and the pellet was suspended in phosphate-buffered saline (PBS) to a final density of 5 × 10^5 cells/mL. Cell suspension in a volume of 250 μL and 500 nM rhodamine 123 were added to a rounded-well plate, followed by incubation for 30 min at 25° C. Measurements were conducted using flow cytometry on the Millipore Guava EasyCyte HT Flow Cytometer System in a green fluorescent channel.

[5] = MTS cytotoxicity assay, statements over the cell panel; assay type: cell-based; details: human, tumor and conditionally normal cells; MTS dose–response curves, high concentrations; read-out: Viable cells remaining
Experimental: The cytotoxicity of the compounds under study was assessed using MTS assay on cell cultures. Cells were seeded into 96-well plates at a concentration of 10,000–20,000 cells/mL. After 24 h, gradient concentrations of the compounds were added to the culture medium and the plates were incubated for 72 h. Subsequently, the culture medium was replaced with MTS reagents (Sigma-Aldrich, Burlington, MA, USA) (MTS:PMS (0.18:0.0092 mg/mL)) and dissolved in phenol-free RPMI 1640 medium. After 2 h of incubation, the resulting water-soluble formazan was measured using the TECAN Infinite M200 Pro microplate reader at wavelengths of 555/750 nm. As a control, equivalent volumes of the solvents in which each compound was dissolved (dH2O/DMSO) were used. To calculate the percentage of viable cells relative to the control, which was considered 100%, dose-response curves were plotted against the logarithm of the compound concentration. The concentration of the compound at which cell growth is inhibited by 50% relative to the control was taken as the inhibitory concentration IC50 and calculated using Origin Pro software 8.0.1. The study was conducted in triplicates and in three independent repetitions.

MCF-7 cells [6] = test: Apoptosis induction, Annexin V-FITC/DAPI flow cytometry; assay type: cell-based, human
Experimental: MCF-7 cells were seeded at a concentration of 15,000 cells/mL in a 6-well plate. Then, 24 h later the cells were treated with different concentrations of DOX-2 for 72 h. The nutrient medium over cells containing the floating cells was collected into tubes, and then the adherent cells were trypsinized and added to the fraction of floating cells. Then, cells were washed, placed in a binding buffer, stained with Annexin V-FITC/DAPI, and analyzed using the flow cytofluorimeter BD FACSCalibur™ (BD Biosciences, Franklin Lakes, NJ, USA). A total of 1% Triton X-100 was used as a control apoptosis inducer.

COc1cccc2c1C(=O)c1c(O)c3c(c(O)c1C2=O)C[C@@](O)(C(=O)CO)C[C@@H]3O[C@H]1C[C@H](N)[C@H](O)[C@H](C)O1 [DOX, Doxorubicin, reference compound]
Effect on the cell cycle (in words) (MCF-7 cells [1]): cell-cycle arrest in the G2M phase

COc1cccc2c1C(=O)c1c(O)c3c(c(O)c1C2=O)CC(O)(C(=O)CO)CC3OC1CC(NC(=O)/C=C/c2cnc(C)c3c2COC(C)(C)O3)C(O)C(C)O1 (stereo not drawn) [DOX-2, (E)-N-(3-hydroxy-2-methyl-6-((3,5,12-trihydroxy-3-(2-hydroxyacetyl)-10-methoxy-6,11-dioxo-1,2,3,4,6,11-hexahydrotetracen-1-yl)oxy)tetrahydro-2H-pyran-4-yl)-3-(2,2,8-trimethyl-4H-[1,3]dioxino[4,5-c]pyridin-5-yl)acrylamide]
Effect on the cell cycle (in words) (MCF-7 cells [1]): cell-cycle arrest in the G2M phase
IC50 (HSF): > 100 µM
IC50 (HCT-15): 110 ± 21.9 µM
IC50 (NCI-H322M): > 100 µM
IC50 (MDA-MB-231): 0.34 ± 0.06 µM
IC50 (SNB-19): 1.05 ± 0.34 µM
IC50 (C2C12): 0.81 ± 0.07 µM
viability at 3 days, 100 µM (Colony formation assay): 30%
IC50 (MCF-7 [2]): 8.21 ± 2.93 µM
Olive Moment (MCF-7 cells [3]; MCF-7, 5 µM (IC30)): 0.73
Tail Area (MCF-7 cells [3]; MCF-7, 5 µM (IC30)): 1254
Tail DNA % (MCF-7 cells [3]; MCF-7, 5 µM (IC30)): 1.3%
Tail Intensity (MCF-7 cells [3]; MCF-7, 5 µM (IC30)): 10
Tail Length (MCF-7 cells [3]; MCF-7, 5 µM (IC30)): 4.9
Tail Moment (MCF-7 cells [3]; MCF-7, 5 µM (IC30)): 0.14
Olive Moment (MCF-7 cells [3]; MCF-7, 10 µM (IC60)): 1.42
Tail Area (MCF-7 cells [3]; MCF-7, 10 µM (IC60)): 637
Tail DNA % (MCF-7 cells [3]; MCF-7, 10 µM (IC60)): 5.1%
Tail Intensity (MCF-7 cells [3]; MCF-7, 10 µM (IC60)): 21
Tail Length (MCF-7 cells [3]; MCF-7, 10 µM (IC60)): 1.5
Tail Moment (MCF-7 cells [3]; MCF-7, 10 µM (IC60)): 0.21
Olive Moment (MCF-7 cells [3]; MCF-7, 20 µM (IC70)): 1.01
Tail Area (MCF-7 cells [3]; MCF-7, 20 µM (IC70)): 876
Tail DNA % (MCF-7 cells [3]; MCF-7, 20 µM (IC70)): 1.9%
Tail Intensity (MCF-7 cells [3]; MCF-7, 20 µM (IC70)): 20
Tail Length (MCF-7 cells [3]; MCF-7, 20 µM (IC70)): 5.8
Tail Moment (MCF-7 cells [3]; MCF-7, 20 µM (IC70)): 0.25
DNA breaks in the Comet assay (in words) (MCF-7 cells [3]; MCF-7, 72 h): do not cause DNA breaks
Cells with reduced mitochondrial potential (MCF-7 [4]): up to 27%
viability at 72 h [5]: 20 to 40%
Percentage of cells in early and late apoptosis (MCF-7 cells [6]; MCF-7, 72 h, IC20–IC60 concentrations): up to 25%
Accumulation of necrotic cells (in words) (MCF-7 cells [6]; MCF-7, concentration corresponding to IC60): no accumulation of necrotic cells
